Key:
5α-reductase = assay: In vivo 5α-reductase inhibitor biological assay; set-up: species or system male Sprague-Dawley rats; conditions: rats treated subcutaneously from postnatal third day until seven weeks; mean of three separate experiments
[1] = target: rat prostate testosterone 5α-reductase; assay: In vitro 5α-reductase inhibitor enzymatic assay (rat ventral prostate homogenate, [3H]testosterone conversion); format: biochemical; conditions: pH 6.5, 37° C., 30 min, mean of three separate experiments
Description: A homogenate of the ventral prostate gland of male Sprague-Dawley rats was prepared, and testosterone 5α-reductase inhibition was measured using the methods previously reported in Iwai, A., et al., “Spectrophotometric Method for the Assay of Steroid 5α-reductase activity of rat liver and prostate microsomes”, Analytical Sciences 2013, 29: 455-459. Both the type 1 and the type 2 isozymes are present in the ventral prostate of the rat. In the assay, rat prostate extracts were used in a neutral pH buffer, and both isozymes were assayed.
The ventral prostate glands were excised and minced with a pair of scissors. The 20 w/v % homogenates were prepared with a glass-glass homogenizer in medium A (sucrose 0.32 M, dithiothreitol 0.1 mM, and sodium phosphate 20 mM, pH 6.5). The homogenate was filtered with surgical gauze and then centrifuged at 3000×g for 10 min. The pellets were suspended in medium A at a protein concentration of 20 mg/ml by triturating sequentially through an 18-gauge needle, and then a 20-gauge needle.
To 40 μl of the enzyme suspension, 10 μl of test sample in ethanol or ethanol alone and a mixture containing 0.525 ml of reaction solution consisting of dithiothreitol 1 mM, sodium phosphate 40 mM, pH 6.5, NADPH 5×10^−5 M, and [1,2,6,7^−3H]testosterone 2.2×10^−9 M were added. The assay mixture was incubated at 37° C. for 30 min. The reaction was stopped by the addition of 1 ml of ethyl acetate, and 50 μl of the upper phase was separated on a silica gel plate in the developing solvent system of ethyl acetate/cyclohexane, at a ratio of 1:1. The zones corresponding to the testosterone and 5α-dihydrotestosterone were cut into fragments. Each fragment was added to 5 ml of Aquasol-2 and counted with a liquid scintillation counter to determine ^3H radioactivity.
The inhibitory activity of each test sample was calculated as follows: Rate of enzyme reaction (R,%)=D/(T+D)×100 Inhibitory activity (%)=(1−Rsample/Rcontrol)×100 where D and T are the ^3H radioactivity recovered. The results are reported in Table 1, and reflected in FIG. 2.

[2] = test system: prostate cancer cell line PC3; assay: Anti-prostate cancer screening, anti-androgenic bioassay (wild type AR transactivation, MMTV-luciferase) in PC-3 cells; format: cell-based, Human; conditions: PC-3 cells transfected with wild type AR, 1 nM DHT, 24 h, mean of three separate experiments
Description: (§1) Human prostate cancer cell lines LNCaP and PC-3 were maintained in RPMI 1640 medium and DMEM medium, respectively. Both media were supplemented with penicillin (25 units/mL), streptomycin (25 μg/mL), and 10% fetal calf serum. For the androgen receptor transactivation assay, an androgen-dependent reporter gene transcription test was employed as the primary screening for potential anti-androgen identification. This assay was first performed in LNCaP cells, which express a clinically relevant mutant AR.
Wild type AR transactivation assay was performed in PC-3 host cells, which lack an endogenous, functional AR.
(§2) Cells were plated in 24-well tissue culture dishes for 24 hours (PC-3 cells) or 48 hours (LNCaP cells) prior to transfection. Subsequently, LNCaP cells were transfected with a reporter gene, MMTV-luciferase, which contains MMTV-LTR promoter and androgen receptor binding element, and PRL-SV40, which served as an internal control for transfection efficiency. PC-3 cells were transfected with a wild type AR expression plasmid, pSG5AR, in addition to the aforementioned MMTV-luciferase reporter gene and PRL-SV40 internal control. SuperFect (Qiagen, Chatsworth, Calif.) was employed as the transfection reagent following manufacturer's recommendations.
(§3) At the end of a 5-hour transfection period, the medium was changed to DMEM or RPMI 1640 medium, supplemented with 10% charcoal dextran-stripped (that is, androgen-depleted) serum. After 24 h, the cells were treated with 1 nM of DHT and/or test compounds at the designated concentration for another 24 h. The cells were harvested for luciferase activity assay using the Dual Luciferase Assay System (Promega, Madison, Wis.).
(§4) The derived data were expressed as relative luciferase activity normalized to the internal luciferase control. […] The results are reported in Table 3, and reflected in FIGS. 4 and 5.

[3] = test system: prostate cancer cell line LNCaP; assay: Anti-prostate cancer screening, anti-androgenic bioassay (AR transactivation, MMTV-luciferase) in LNCaP cells; format: cell-based, Human; conditions: 1 nM DHT, 24 h, mean of three separate experiments
Description: as §1, §2, §3
as §4, with “control. Cells cultured in medium containing DHT (androgen), as a positive control, induced a marked reporter gene expression.” for “control.”

CC(C)C1=CC2=CC[C@@H]3[C@](C)(CCC[C@@]3(C)C(=O)O)[C@H]2CC1 [Abietic acid]
ED50 of the 5α-reductase inhibitors activities (5α-reductase): 8800 ± 87 nM
IC50 [1]: 56000 ± 22000 nM

CC(C)(C#N)c1cc(Cn2cncn2)cc(C(C)(C)C#N)c1 [Anastrozole, anastrozole, reference compound]
ED50 of the 5α-reductase inhibitors activities (5α-reductase): 1090 ± 3.4 nM
IC50 [1]: 11230 ± 23 nM

CC(C)C1=CC2=CCC3C4(C)CC(CC3(C)C2CC1)OC4=O (centres unmarked) [Compound 2, Abieta-7, 13-dien-18-oic acid (18→2) lactone]
IC50 ([2]; Homo sapiens): 45.7 ± 1.09 nM
ED50 of the 5α-reductase inhibitors activities (5α-reductase): 64 ± 0.76 nM
melting point: 227 to 229 °C
IC50 ([3]; Homo sapiens): 4.22 ± 0.03 nM
IC50 [1]: 0.34 ± 0.06 nM

CC(C)C1=CC2=CC3OC(=O)C4(C)CCCC(C)(C2CC1)C34 (centres unmarked) [Compound 3, Abieta-7,13-dien-18-oic acid (18→6) lactone]
IC50 ([2]; Homo sapiens): 112 ± 3.7 nM
ED50 of the 5α-reductase inhibitors activities (5α-reductase): 90 ± 0.88 nM
melting point: 301 to 303 °C
IC50 ([3]; Homo sapiens): 9.08 ± 0.08 nM
IC50 [1]: 0.91 ± 0.07 nM

CC(C)C1=CC2=CCC3C(C)(C(=O)Oc4ccccc4)CC(O)CC3(C)C2CC1 (centres unmarked) [Compound 4a, Phenyl-2-hydroxy-abieta-7,13-dien-18-oate]
IC50 ([2]; Homo sapiens): 18.2 ± 11 nM
ED50 of the 5α-reductase inhibitors activities (5α-reductase): 44 ± 0.65 nM
IC50 ([3]; Homo sapiens): 3.24 ± 0.04 nM
IC50 [1]: 0.22 ± 0.03 nM

CC(C)C1=CC2=CCC3C(C)(C(=O)Sc4ccccc4)CC(O)CC3(C)C2CC1 (centres unmarked) [Compound 4b, Phenyl-2-hydroxy-abieta-7,13-dien-18-thioate]
IC50 [2]: 26.4 ± 1.8 nM
ED50 of the 5α-reductase inhibitors activities (5α-reductase): 45 ± 0.57 nM
IC50 [3]: 3.58 ± 0.02 nM
IC50 [1]: 0.29 ± 0.01 nM

CC(C)C1=CC2=CCC3C(C)(C(=O)Nc4ccccc4)CC(O)CC3(C)C2CC1 (centres unmarked) [Compound 4c, Phenyl-2-hydroxy-abieta-7,13-dien-18-carboxamide]
IC50 ([2]; Homo sapiens): 11.14 ± 0.09 nM
ED50 of the 5α-reductase inhibitors activities (5α-reductase): 38 ± 0.45 nM
IC50 ([3]; Homo sapiens): 2.33 ± 0.05 nM
IC50 [1]: 0.19 ± 0.02 nM

CC(C)C1=CC2=CC(O)C3C(C)(C(=O)Oc4ccccc4)CCCC3(C)C2CC1 (centres unmarked) [Compound 5a, Phenyl-6-hydroxy-abieta-7,13-dien-18-oate]
IC50 ([2]; Homo sapiens): 71.2 ± 3.6 nM
ED50 of the 5α-reductase inhibitors activities (5α-reductase): 76 ± 0.89 nM
IC50 ([3]; Homo sapiens): 6.21 ± 0.04 nM
IC50 [1]: 0.74 ± 0.06 nM

CC(C)C1=CC2=CC(O)C3C(C)(C(=O)Sc4ccccc4)CCCC3(C)C2CC1 (centres unmarked) [Compound 5b, Phenyl-6-hydroxy-abieta-7,13-dien-18-thioate]
IC50 ([2]; Homo sapiens): 83.5 ± 2.3 nM
ED50 of the 5α-reductase inhibitors activities (5α-reductase): 88 ± 0.89 nM
IC50 ([3]; Homo sapiens): 7.8 ± 0.09 nM
IC50 [1]: 0.88 ± 0.07 nM

CC(C)C1=CC2=CC(O)C3C(C)(C(=O)Nc4ccccc4)CCCC3(C)C2CC1 (centres unmarked) [Compound 5c, Phenyl-6-hydroxy-abieta-7,13-dien-18-carboxamide]
IC50 ([2]; Homo sapiens): 66.2 ± 2.3 nM
ED50 of the 5α-reductase inhibitors activities (5α-reductase): 71 ± 0.74 nM
IC50 ([3]; Homo sapiens): 5.78 ± 0.03 nM
IC50 [1]: 0.68 ± 0.08 nM

CC(C)(C)NC(=O)[C@H]1CC[C@H]2[C@@H]3CC[C@H]4NC(=O)C=C[C@]4(C)[C@H]3CC[C@]12C [Finasteride, finasteride, reference compound]
ED50 of the 5α-reductase inhibitors activities (5α-reductase): 170 ± 7.9 nM
IC50 ([3]; Homo sapiens): > 100000 nM
IC50 [1]: 60 ± 1.2 nM

From patent publication US10064837B1, “Abietic acid derivatives as anti-tumor agents” (KING SAUD UNIVERSITY, priority 2018, dated 2018)
